Experimental data: ChEMBL document CHEMBL2057157, “Butyl pocket formation in the vitamin D receptor strongly affects the agonistic or antagonistic behavior of ligands” (J Med Chem, 2012)

Target: T1, Vitamin D3 receptor (Homo sapiens, UniProt P11473)
T1 sequence (P11473 whole entry): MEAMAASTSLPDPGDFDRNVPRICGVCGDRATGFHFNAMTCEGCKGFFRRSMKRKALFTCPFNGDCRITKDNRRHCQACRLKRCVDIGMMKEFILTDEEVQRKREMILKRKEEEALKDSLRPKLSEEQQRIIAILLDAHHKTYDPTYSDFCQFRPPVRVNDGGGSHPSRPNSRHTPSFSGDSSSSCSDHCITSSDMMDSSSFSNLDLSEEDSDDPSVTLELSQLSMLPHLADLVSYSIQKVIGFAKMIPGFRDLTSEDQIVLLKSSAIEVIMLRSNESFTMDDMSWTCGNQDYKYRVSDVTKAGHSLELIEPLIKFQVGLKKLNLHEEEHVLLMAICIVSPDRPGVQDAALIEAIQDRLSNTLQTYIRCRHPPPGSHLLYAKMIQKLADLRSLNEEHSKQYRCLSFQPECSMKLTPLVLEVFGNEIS
Experiment: Displacement of [3H]1alpha,25-dihydroxyvitamin D3 from human recombinant GST-tagged vitamin D3 receptor LBD expressed in Escherichia coli BL21 after 16 hrs

## C=C1[C@H](O)CC(=C/C=C2\CCC[C@]3(C)[C@@H]([C@H](C)[C@@H](CC)CC(O)(CC)CC)CC[C@@H]23)C[C@H]1O
  IC50: 0.38 nM
